Experimental data from PubChem BioAssay AID1963872 (Molecular Pharmacology Branch, DTP, NCI, 2024).

Tested on: KRAS patient-derived spheroids with HUVEC/MSC, viability
Assay: Anticancer human tumor 519858-162-T-J1-PDC patient-derived colon adenocarcinoma cell line growth inhibition [KRAS2]
Conditions: for IC50: curve of first compound; for viability, T/C: stronger effect = lower value
Source text: Multicellular complex tumor spheroid response to RAS pathway inhibitors in combination with a targeted agents in patient-derived cell lines with oncogenic KRAS variants from multiple cancer types
A high-throughput screen of multi-cell type tumor spheroids was designed to identify active combinations of targeted small molecules and KRAS pathway inhibitors. Complex spheroids include a stromal component modeled by human endothelial cells (HUVEC) and fibroblasts modeled by human mesenchymal stem cells (MSCs). The concentration ranges selected for each drug and investigational agent were based upon clinically achievable concentrations if the clinical Cmax of the agent was known.
Compounds. The drugs and investigational agents: BI-3406 (NSC825286), BAY-293 (NSC824723), batoprotafib (TNO155; NSC825523), sotorasib (AMG 510; NSC818433), MRTX1257 (NSC819558), elimusertib (BAY 1895344; NSC800525), molibresib (GSK525762; NSC774829), temuterkib (LY3214996; NSC803410), venetoclax (NSC766270), alisertib (NSC759677), olaparib (NSC753686), talazoparib (NSC767125), erdafitinib (NSC781556), ipatasertib (NSC767898), cabozantinib (NSC761068), nintedanib (NSC756659), abemaciclib (NSC768073), docetaxel (NSC628503), trametinib (NSC758246), and sapanisertib (NSC764658) were obtained from the National Cancer Institute (NCI) Developmental Therapeutics Program Chemical Repository. The FDA-approved anticancer drug set is available from the Developmental Therapeutics Program. […] The stock solutions were prepared in dimethyl sulfoxide (DMSO, Sigma-Aldrich, St. Louis, MO, cat. D2650) at 800-fold the tested concentration and stored at -70 degrees C prior to their use. All drugs and investigational agents were tested over a range starting from a high concentration at or near the clinical Cmax and decreasing in half-log increments. If the clinical Cmax for an agent had not been determined, the highest concentration tested was 10 microM.
Cell Culture. All cells were maintained in an incubator at 37 degrees C and 5% CO2 with 95% humidity. The PDC lines were cultured according to standard operating procedures established by the NCI PDMR (https://pdmr.cancer.gov/sops/default.htm). Briefly, all PDCs were thawed and cultured in Matrigel-coated flasks prepared with a working solution of 1X Ham's F-12 nutrient mix, without supplementation (Invitrogen, Waltham, MA, cat. 11765054), 100 U/mL penicillin-streptomycin (Invitrogen, cat. 15140122), and 2.5% Matrigel (Corning Inc., Corning, NY, cat. 354248) for the first three passages. All PDCs were cultured in complete DMEM/F-12 media containing advanced DMEM/F-12 (Invitrogen, cat. 12634028), 4.9% defined fetal bovine serum, heat inactivated (HyClone Laboratories Inc., Logan, UT, cat. SH30070.03HI), 389 ng/mL hydrocortisone (Sigma-Aldrich, cat. H4001), 9.7 ng/mL human EGF recombinant protein (Invitrogen, cat. PHG0313), 23.4 microg/mL adenine (Sigma-Aldrich, cat. A2786), 97.3 U/mL penicillin-streptomycin (Invitrogen, cat. 15140122), 1.9 mM L-glutamine (Invitrogen, cat. 25030081), and 9.7 microM Y-27632 dihydrochloride (Tocris Bioscience, Bristol, United Kingdom, cat. 1254). The PDCs were cultured in complete DMEM/F12 media without 9.7 microM Y-27632 dihydrochloride for at least two passages prior to the screen. The established cell line HOP-62 was cultured in RPMI 1640 medium, HEPES (Invitrogen, cat. 22400105) with 10% defined fetal bovine serum (HyClone Laboratories Inc., cat. SH30070.03) and 2 mM L-glutamine (Invitrogen, cat. 25030081). The pooled donor HUVEC were cultured in endothelial cell growth medium 2 (PromoCell, Heidelberg, Germany, cat. C-22011) and the hMSC were cultured in mesenchymal stem cell growth medium 2 (PromoCell, cat. C-28009). For all experiments, HUVEC and hMSC were used at passages </=5, while the malignant cell lines were used at passages </=15. […]

[1] = second compound 0.1 µM, first compound 0.0316 µM
[2] = second compound 0.1 µM, first compound 0.1 µM
[3] = second compound 0.316 µM, first compound 0.0316 µM
[4] = second compound 0.316 µM, first compound 0.1 µM
[5] = second compound 1 µM, first compound 0.0316 µM
[6] = second compound 1 µM, first compound 0.1 µM
[7] = second compound 3.16 µM, first compound 0.0316 µM
[8] = second compound 3.16 µM, first compound 0.1 µM
[9] = second compound 10 µM, first compound 0.0316 µM
[10] = second compound 10 µM, first compound 0.1 µM
[11] = second compound 0.1 µM, first compound 0.316 µM
[12] = second compound 0.1 µM, first compound 1 µM
[13] = second compound 0.1 µM, first compound 3.16 µM
[14] = second compound 0.1 µM, first compound 10 µM
[15] = second compound 0.316 µM, first compound 0.316 µM
[16] = second compound 0.316 µM, first compound 1 µM
[17] = second compound 0.316 µM, first compound 3.16 µM
[18] = second compound 0.316 µM, first compound 10 µM
[19] = second compound 1 µM, first compound 0.316 µM
[20] = second compound 1 µM, first compound 1 µM
[21] = second compound 1 µM, first compound 3.16 µM
[22] = second compound 1 µM, first compound 10 µM
[23] = second compound 3.16 µM, first compound 0.316 µM
[24] = second compound 3.16 µM, first compound 1 µM
[25] = second compound 3.16 µM, first compound 3.16 µM
[26] = second compound 3.16 µM, first compound 10 µM
[27] = second compound 10 µM, first compound 0.316 µM
[28] = second compound 10 µM, first compound 1 µM
[29] = second compound 10 µM, first compound 3.16 µM
[30] = second compound 10 µM, first compound 10 µM
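Further: compound exposure lasted seven days before readout.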
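Wherever viability, T/C is given: 100% = DMSO vehicle control viability.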

Row | Structure (SMILES) | IC50 (second compound 0.1 µM) [nM] | IC50 (second compound 0.316 µM) [nM] | IC50 (second compound 1 µM) [nM] | IC50 (second compound 3.16 µM) [nM] | IC50 (second compound 10 µM) [nM] | viability, T/C [1] [%] | viability, T/C [2] [%] | viability, T/C [3] [%] | viability, T/C [4] [%] | viability, T/C [5] [%] | viability, T/C [6] [%] | viability, T/C [7] [%] | viability, T/C [8] [%] | viability, T/C [9] [%] | viability, T/C [10] [%] | viability, T/C [11] [%] | viability, T/C [12] [%] | viability, T/C [13] [%] | viability, T/C [14] [%] | viability, T/C [15] [%] | also measured
1 | CC(C)n1nc(-c2ccc3oc(N)nc3c2)c2c(N)ncnc21 + C=CC(=O)N1CCN(c2nc(=O)n(-c3c(C)ccnc3C(C)C)c3nc(-c4c(O)cccc4F)c(F)cc23)C(C)C1 | > 100 | > 100 | > 100 | > 100 | 81.5 | 76.3 | 60.1 | 57.6 | 54.5 | 87.3 | 54.9 | 64 | 56.1 | 62.3 | 47.1 | – | – | – | – | – | viability, T/C (second compound 0.1 µM, first compound 0.000316 µM): 114%; viability, T/C (second compound 0.1 µM, first compound 0.001 µM): 102%; viability, T/C (second compound 0.1 µM, first compound 0.00316 µM): 104%; viability, T/C (second compound 0.1 µM, first compound 0.01 µM): 67.5%; viability, T/C (second compound 0.316 µM, first compound 0.000316 µM): 87.5%; viability, T/C (second compound 0.316 µM, first compound 0.001 µM): 94%; viability, T/C (second compound 0.316 µM, first compound 0.00316 µM): 70.2%; viability, T/C (second compound 0.316 µM, first compound 0.01 µM): 58.9%; viability, T/C (second compound 1 µM, first compound 0.000316 µM): 108%; viability, T/C (second compound 1 µM, first compound 0.001 µM): 78.4%; viability, T/C (second compound 1 µM, first compound 0.00316 µM): 67.3%; viability, T/C (second compound 1 µM, first compound 0.01 µM): 56.7%; viability, T/C (second compound 3.16 µM, first compound 0.000316 µM): 94.3%; viability, T/C (second compound 3.16 µM, first compound 0.001 µM): 75.1%; viability, T/C (second compound 3.16 µM, first compound 0.00316 µM): 74.6%; viability, T/C (second compound 3.16 µM, first compound 0.01 µM): 68.8%; viability, T/C (second compound 10 µM, first compound 0.000316 µM): 85.4%; viability, T/C (second compound 10 µM, first compound 0.001 µM): 76.6%; viability, T/C (second compound 10 µM, first compound 0.00316 µM): 69.6%; viability, T/C (second compound 10 µM, first compound 0.01 µM): 86.7%
2 | CCNC(=O)CC1N=C(c2ccc(Cl)cc2)c2cc(OC)ccc2-n2c(C)nnc21 (stereo not given) + C=CC(=O)N1CCN(c2nc(=O)n(-c3c(C)ccnc3C(C)C)c3nc(-c4c(O)cccc4F)c(F)cc23)C(C)C1 | 2660 | 2380 | 2560 | 2210 | 2680 | 120 | 97.1 | 102 | 95.2 | 76 | 74.6 | 93.9 | 86.3 | 93.9 | 78.5 | 74.8 | 70.3 | 42.1 | 37.1 | 79.8 | viability, T/C [16]: 54.7%; viability, T/C [17]: 53%; viability, T/C [18]: 29.7%; viability, T/C [19]: 70.4%; viability, T/C [20]: 79.6%; viability, T/C [21]: 44.2%; viability, T/C [22]: 28.3%; viability, T/C [23]: 101%; viability, T/C [24]: 78.2%; viability, T/C [25]: 37.6%; viability, T/C [26]: 29.4%; viability, T/C [27]: 97.6%; viability, T/C [28]: 84.7%; viability, T/C [29]: 44.1%; viability, T/C [30]: 25.4%
3 | O=C(c1cc(Cc2n[nH]c(=O)c3ccccc23)ccc1F)N1CCN(C(=O)C2CC2)CC1 + C=CC(=O)N1CCN(c2nc(=O)n(-c3c(C)ccnc3C(C)C)c3nc(-c4c(O)cccc4F)c(F)cc23)C(C)C1 | > 10000 | > 10000 | > 10000 | > 10000 | > 10000 | 71.4 | 111 | 89.2 | 91.2 | 73.9 | 98.4 | 88.8 | 92.5 | 106 | 106 | 96.3 | 120 | 123 | 110 | 95.1 | viability, T/C [16]: 97.4%; viability, T/C [17]: 91.9%; viability, T/C [18]: 111%; viability, T/C [19]: 80.8%; viability, T/C [20]: 100%; viability, T/C [21]: 89.3%; viability, T/C [22]: 108%; viability, T/C [23]: 84%; viability, T/C [24]: 95%; viability, T/C [25]: 96.8%; viability, T/C [26]: 120%; viability, T/C [27]: 72.5%; viability, T/C [28]: 83.8%; viability, T/C [29]: 86.1%; viability, T/C [30]: 72.7%
